Results as given in US7235580B2, “Mitotic kinesin inhibitors” (Merck & Co., Inc., priority 2002, dated 2007).

target: T1, human KSP motor domain (KSP(367H)) (Homo sapiens, UniProt P52732); test: Kinesin ATPase In Vitro Assay; format: biochemical; settings: kinesin motor domain with microtubules, 1 mM ATP, 23° C.; free phosphate by quinaldine red/ammonium molybdate
T1 construct: were used to amplify the motor domain and the neck linker region; made in house; host or cells: E. coli BL21 (DE3), pRSETa
T1 sequence (P52732 18-359 limits assumed): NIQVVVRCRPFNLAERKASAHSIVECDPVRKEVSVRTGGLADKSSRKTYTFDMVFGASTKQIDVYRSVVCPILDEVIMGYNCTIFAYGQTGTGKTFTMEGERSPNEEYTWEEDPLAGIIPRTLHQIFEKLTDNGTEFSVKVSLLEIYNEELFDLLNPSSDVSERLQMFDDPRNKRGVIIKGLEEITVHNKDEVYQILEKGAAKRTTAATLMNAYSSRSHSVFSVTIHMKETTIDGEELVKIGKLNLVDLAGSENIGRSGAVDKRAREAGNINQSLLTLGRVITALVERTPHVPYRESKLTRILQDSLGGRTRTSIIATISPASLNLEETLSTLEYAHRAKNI
Text: I. Kinesin ATPase In Vitro Assay
Cloning and Expression of Human Poly-histidine Tagged KSP Motor Domain (KSP(367H))
Plasmids for the expression of the human KSP motor domain construct were cloned by PCR using a pBluescript full length human KSP construct (Blangy et al., Cell, vol. 83, pp 1159-1169, 1995) as a template. The N-terminal primer 5′-[…] (SEQ.ID.NO.: 1) and the C-terminal primer 5′-[…] […] (SEQ.ID.NO.: 2) were used to amplify the motor domain and the neck linker region. The PCR products were digested with AseI and XhoI, ligated into the NdeI/XhoI digestion product of pRSETa (Invitrogen) and transformed into E. coli BL21 (DE3).
Cells were grown at 37° C. to an OD600 of 0.5. After cooling the culture to room temperature expression of KSP was induced with 100 μM IPTG and incubation was continued overnight. Cells were pelleted by centrifugation and washed once with ice-cold PBS. Pellets were flash-frozen and stored −80° C.
Cell pellets were thawed on ice and resuspended in lysis buffer (50 mM K-HEPES, pH 8.0, 250 mM KCl, 0.1% Tween, 10 mM imidazole, 0.5 mM Mg-ATP, 1 mM PMSF, 2 mM benzimidine, 1× complete protease inhibitor cocktail (Roche)). Cell suspensions were incubated with 1 mg/ml lysozyme and 5 mM β-mercaptoethanol on ice for 10 minutes, followed by sonication (3×30 sec). All subsequent procedures were performed at 4° C. Lysates were centrifuged at 40,000×g for 40 minutes. Supernatants were diluted and loaded onto an SP Sepharose column (Pharmacia, 5 ml cartridge) in buffer A (50 mM K-HEPES, pH 6.8, 1 mM MgCl2, 1 mM EGTA, 10 μM Mg-ATP, 1 mM DTT) and eluted with a 0 to 750 mM KCl gradient in buffer A. Fractions containing KSP were pooled and incubated with Ni-NTA resin (Qiagen) for one hour. The resin was washed three times with buffer B (Lysis buffer minus PMSP and protease inhibitor cocktail), followed by three 15-minute incubations and washes with buffer B. Finally, the resin was incubated and washed for 15 minutes three times with buffer C (same as buffer B except for pH 6.0) and poured into a column. KSP was eluted with elution buffer (identical to buffer B except for 150 mM KCl and 250 mM imidazole). KSP-containing fractions were pooled, made 10% in sucrose, and stored at −80° C.
Microtubules are prepared from tubulin isolated from bovine brain. Purified tubulin (>97% MAP-free) at 1 mg/ml is polymerized at 37° C. in the presence of 10 μM paclitaxel, 1 mM DTT, 1 mM GTP in BRB80 buffer (80 mM K-PIPES, 1 mM EGTA, 1 mM MgCl2 at pH 6.8). The resulting microtubules are separated from non-polymerized tubulin by ultracentrifugation and removal of the supernatant. The pellet, containing the microtubules, is gently resuspended in 10 μM paclitaxel, 1 mM DTT, 50 μg/ml ampicillin, and 5 μg/ml chloramphenicol in BRB80.
The kinesin motor domain is incubated with microtubules, 1 mM ATP (1:1 MgCl2: Na-ATP), and compound at 23° C. in buffer containing 80 mM K-HEPES (pH 7.0), 1 mM EGTA, 1 mM DTT, 1 mM MgCl2, and 50 mM KCl. The reaction is terminated by a 2-10 fold dilution with a final buffer composition of 80 mM HEPES and 50 mM EDTA. Free phosphate from the ATP hydrolysis reaction is measured via a quinaldine red/ammonium molybdate assay by adding 150 μl of quench C buffer containing a 2:1 ratio of quench A:quench B. Quench A contains 0.1 mg/ml quinaldine red and 0.14% polyvinyl alcohol; quench B contains 12.3 mM ammonium molybdate tetrahydrate in 1.15 M sulfuric acid. The reaction is incubated for 10 minutes at 23° C., and the absorbance of the phospho-molybdate complex is measured at 540 nm.

IC50, ≤ 50 µM:
CN(C(=O)N1CC(c2cc(F)ccc2F)=CC1(CO)c1ccccc1)C1CCN(C(CF)CF)CC1 (stereo not shown) [Compound 14-1]
COC(=O)NCCCC1(c2ccccc2)C=C(c2cc(Cl)ccc2F)CN1C(=O)N(C)C (stereo not shown) [Compound 22-1, methyl 3-{4-(5-chloro-2-fluorophenyl)-1-[(dimethylamino)carbonyl]-2-phenyl-2,5-dihydro-1H-pyrrol-2-yl}propylcarbamate]
CN1CCC(N(C)C(=O)N2CC(c3cc(F)ccc3F)=C[C@@]2(CO)c2ccccc2)CC1 (stereo in doubt) [Compound 1-10, 4-(2,5-Difluorophenyl)-2-(hydroxymethyl)-N-methyl-N-(1-methylpiperidin-4-yl)-2-phenyl-2,5-dihydro-1H-pyrrole-1-carboxamide]
CN(C)C(=O)N1CC(c2cc(Cl)ccc2F)=CC1(CCCNS(C)(=O)=O)c1ccccc1 (stereo not shown) [Compound 21-1, 4-(5-chloro-2-fluorophenyl)-N,N-dimethyl-2-{3-[(methylsulfonyl)amino]propyl}-2-phenyl-2,5-dihydro-1H-pyrrole-1-carboxamide]
CN(C)CC(=O)N1CCC(N(C)C(=O)N2CC(c3cc(F)ccc3F)=CC2(CO)c2ccccc2)CC1 (stereo not shown) [Compound 7-3, 4-(2,5-difluorophenyl)-N-[1-(N,N-dimethylglycyl)piperidin-4-yl]-2-(hydroxymethyl)-N-methyl-2-phenyl-2,5-dihydro-1H-pyrrole-1-carboxamide]
CN(C)CCCC1(c2ccccc2)C=C(c2cc(F)ccc2F)CN1C(=O)N(C)C (stereo not shown) [Compound 4-4, 4-(2,5-Difluorophenyl)-2-[3-(dimethylamino)propyl]-N,N-dimethyl-2-phenyl-2,5-dihydro-1H-pyrrole-1-carboxamide]
COCC1(c2ccccc2)C=C(c2cc(F)ccc2F)CN1C(=O)N(C)C (stereo not shown) [Compound 2-1, 4-(2,5-Difluorophenyl)-2-(methoxymethyl)-N,N-dimethyl-2-phenyl-2,5-dihydro-1H-pyrrole-1-carboxamide]
CN(C)C(=O)N1CC(c2cc(F)ccc2F)=C[C@@]1(CCC(N)C(F)F)c1ccccc1 (stereo partly drawn) [Compound 31-3, (2S)-2-(3-amino-4,4-difluorobutyl)-4-(2,5-difluorophenyl)-N,N-dimethyl-2-phenyl-2,5-dihydro-1H-pyrrole-1-carboxamide]
CN(C(=O)N1CC(c2cc(F)ccc2F)=CC1(CO)c1ccccc1)C1CCN(CCO)CC1 (stereo not shown) [Compound 11-1, 4-(2,5-difluorophenyl)-N-[1-(2-hydroxyethyl)piperidin-4-yl]-2-(hydroxymethyl)-N-methyl-2-phenyl-2,5-dihydro-1H-pyrrole-1-carboxamide]
CN(C)C(=O)N1CC(c2cc(F)ccc2F)=CC1(CCC(=O)NN)c1ccccc1 (stereo not shown) [Compound 25-1, 4-(2,5-difluorophenyl)-2-(3-hydrazino-3-oxopropyl)-N,N-dimethyl-2-phenyl-2,5-hydro-1H-pyrrole-1-carboxamide]
CN(C)C(=O)N1CC(c2cc(F)ccc2F)=CC1(CCC(=O)Nc1ccccc1)c1ccccc1 (stereo not shown) [Compound 24-2, 2-(3-anilino-3-oxopropyl)-4-(2,5-difluorophenyl)-N,N-dimethyl-2-phenyl-2,5-dihydro-1H-pyrrole-1-carboxamide]
CN(C)C(=O)N1CC(c2cc(F)ccc2F)=CC1(CCCO)c1ccccc1 (stereo not shown) [Compound 4-1a, 2-(3-Hydroxypropyl)-4-(2,5-difluorophenyl)-N,N-dimethyl-2-phenyl-2,5-dihydro-1H-pyrrole-1-carboxamide]
COCC1(c2ccccc2)C=C(c2cc(F)ccc2F)CN1C(=O)N(C)C1CCN(C)CC1 (stereo not shown) [Compound 18-2, 4-(2,5-difluorophenyl)-2-(methoxymethyl)-N-methyl-N-(1-methylpiperidin-4-yl)-2-phenyl-2,5-dihydro-1H-pyrrole-1-carboxamide]
CN(C(=O)N1CC(c2cc(F)ccc2F)=CC1(CO)c1ccccc1)C1CCN(CC(F)F)CC1 (stereo not shown) [Compound 10-1, N-[1-(2,2-difluoroethyl)piperidin-4-yl]-4-(2,5-difluorophenyl)-2-(hydroxymethyl)-N-methyl-2-phenyl-2,5-dihydro-1H-pyrrole-1-carboxamide]
CN(C(=O)N1CC(c2cc(F)ccc2F)=C[C@@]1(CO)c1ccccc1)C1CCN(C2CC2)CC1 [Compound 15-1, (2S)-N-(1-cyclopropylpiperidin-4-yl)-4-(2,5-difluorophenyl)-2-(hydroxymethyl)-N-methyl-2-phenyl-2,5-dihydro-1H-pyrrole-1-carboxamide]
CN(C)CCCC1(c2ccccc2)C=C(c2cc(F)ccc2F)CN1C(=O)N(C)C1CCOCC1 (stereo not shown) [Compound 28-3, 4-(2,5-difluorophenyl)-2-[3-(dimethylamino)propyl]-N-methyl-2-phenyl-N-tetrahydro-2H-pyran-4-yl-2,5-dihydro-1H-pyrrole-1-carboxamide]
CN(C)C(=O)N1CC(c2cc(F)ccc2F)=CC1(CO)c1ccccc1 (stereo not shown) [Compound 1-9, 4-(2,5-Difluorophenyl)-2-(hydroxymethyl)-N,N-dimethyl-2-phenyl-2,5-dihydro-1H-pyrrole-1-carboxamide]
CN(C(=O)N1CC(c2cc(F)ccc2F)=CC1(CO)c1ccccc1)C1CCN(CS(C)(=O)=O)CC1 (stereo not shown) [Compound 13-1, 4-(2,5-difluorophenyl)-2-(hydroxymethyl)-N-methyl-N-{1-[(methylsulfonyl)methyl]piperidin-4-yl}-2-phenyl-2,5-dihydro-1H-pyrrole-1-carboxamide]
CN(C)CCCC1(c2ccccc2)C=C(c2cc(F)ccc2F)CN1C(=O)C(C)(C)O (stereo not shown) [Compound 29-3, 1-{4-(2,5-difluorophenyl)-2-[3-(dimethylamino)propyl]-2-phenyl-2,5-dihydro-1-pyrrol-1-yl}-2-methyl-1-oxopropan-2-ol]
CN(C(=O)N1CC(c2cc(F)ccc2F)=CC1(CO[Si](C)(C)C(C)(C)C)c1ccccc1)C1CCN(CC(=O)OCc2ccccc2)CC1 (stereo not shown) [Compound 16-1]
CN(C)C(=O)N1CC(c2cc(F)ccc2F)=CC1(COCCN)c1ccccc1 (stereo not shown) [Compound 2-3, 2-[(2-Aminoethoxy)methyl]-4-(2,5-difluorophenyl)-N,N-dimethyl-2-phenyl-2,5-dihydro-1H-pyrrole-1-carboxamide]
CN(C(=O)N1CC(c2cc(F)ccc2F)=C[C@@]1(CO)c1ccccc1)C1CCN(CCF)CC1 [Compound 12-1, (2S)-4-(2,5-difluorophenyl)-N-[1-(2-fluoroethyl)piperidin-4-yl]-2-(hydroxymethyl)-N-methyl-2-phenyl-2,5-dihydro-1H-pyrrole-1-carboxamide]
